Source: ChEMBL document CHEMBL1152864, “Synthesis and anti-inflammatory activity of newer quinazolin-4-one derivatives” (Eur J Med Chem, 2009)

Tests used:
Rattus norvegicus [1] = test: Antiinflammatory activity in Charles-Foster albino rat assessed as inhibition of carrageenan-induced hind paw edema at 50 mg/kg, po relative to control; assay type: functional
[2] = Acute toxicity in po dosed albino mouse; assay type: organism-based; conditions: in vivo, read-out: ALD50
Rattus norvegicus [3] = test: Antiinflammatory activity in Charles-Foster albino rat assessed as inhibition of carrageenan-induced hind paw edema at 25 mg/kg, po relative to control; assay type: functional
Rattus norvegicus [4] = test: Antiinflammatory activity in Charles-Foster albino rat assessed as inhibition of carrageenan-induced hind paw edema at 100 mg/kg, po relative to control; assay type: functional

Row | Compound | inhibition in vivo at 50 mg/kg (Rattus norvegicus [1]) | LD50 [2] | inhibition in vivo at 25 mg/kg (Rattus norvegicus [3]) | inhibition in vivo at 100 mg/kg (Rattus norvegicus [4])
1 | COc1ccc(C2C(Cl)C(=O)N2n2c(CSc3nnc(-c4ccncc4)o3)nc3ccc(Br)cc3c2=O)cc1 (stereo not drawn) | 28.6% | > 1000 mg/kg |  | 
2 | O=C1CSC(c2ccc(Cl)cc2)N1n1c(CSc2nnc(-c3ccncc3)o2)nc2ccccc2c1=O (stereo not drawn) | 34.1% | > 1000 mg/kg |  | 
3 | O=c1c2cc(Br)ccc2nc(CSc2nnc(-c3ccncc3)o2)n1/N=C/c1ccc(O)cc1 | 22.3% | > 1000 mg/kg |  | 
4 | O=C1C(Cl)C(c2ccc(Cl)cc2)N1n1c(CSc2nnc(-c3ccncc3)o2)nc2ccc(Br)cc2c1=O (stereo not drawn) | 29.9% | > 1000 mg/kg |  | 
5 | CCCCC1C(=O)N(c2ccccc2)N(c2ccccc2)C1=O [PHENYLBUTAZONE] | 36.8% |  | 25.4% | 66.4%
6 | O=C1C(Cl)C(c2ccccc2)N1n1c(CSc2nnc(-c3ccncc3)o2)nc2ccccc2c1=O (stereo not drawn) | 25.1% | > 1000 mg/kg |  | 
7 | O=c1c2ccccc2nc(CSc2nnc(-c3ccncc3)o2)n1/N=C/c1ccc(Cl)cc1 | 23.7% | > 1000 mg/kg |  | 
8 | O=C1C(Cl)C(c2ccc(O)cc2)N1n1c(CSc2nnc(-c3ccncc3)o2)nc2ccc(Br)cc2c1=O (stereo not drawn) | 27.4% | > 1000 mg/kg |  | 
9 | COc1ccc(/C=N/n2c(CSc3nnc(-c4ccncc4)o3)nc3ccc(Br)cc3c2=O)cc1 | 24.4% | > 1000 mg/kg |  | 
10 | O=c1c2ccccc2nc(CSc2nnc(-c3ccncc3)o2)n1/N=C/c1ccc(O)cc1 | 18.2% | > 1000 mg/kg |  | 
11 | COc1ccc(C2SCC(=O)N2n2c(CSc3nnc(-c4ccncc4)o3)nc3ccc(Br)cc3c2=O)cc1 (stereo not drawn) | 35.3% | > 1000 mg/kg |  | 
12 | O=C1CSC(c2ccccc2)N1n1c(CSc2nnc(-c3ccncc3)o2)nc2ccccc2c1=O (stereo not drawn) | 30.1% | > 1000 mg/kg |  | 
13 | O=C1CSC(c2ccc(O)cc2)N1n1c(CSc2nnc(-c3ccncc3)o2)nc2ccc(Br)cc2c1=O (stereo not drawn) | 32.7% | > 1000 mg/kg |  | 
14 | O=c1c2cc(Br)ccc2nc(CSc2nnc(-c3ccncc3)o2)n1/N=C/c1ccccc1 | 19.4% | > 1000 mg/kg |  | 
15 | O=C1C(Cl)C(c2ccccc2)N1n1c(CSc2nnc(-c3ccncc3)o2)nc2ccc(Br)cc2c1=O (stereo not drawn) | 26.3% | > 1000 mg/kg |  | 
16 | O=C1C(Cl)C(c2ccc(Cl)cc2)N1n1c(CSc2nnc(-c3ccncc3)o2)nc2ccccc2c1=O (stereo not drawn) | 27.9% | > 1000 mg/kg |  | 
17 | O=C1CSC(c2ccccc2)N1n1c(CSc2nnc(-c3ccncc3)o2)nc2ccc(Br)cc2c1=O (stereo not drawn) | 31.3% | > 1000 mg/kg |  | 
18 | O=c1c2ccccc2nc(CSc2nnc(-c3ccncc3)o2)n1/N=C/c1ccccc1 | 16.3% | > 1000 mg/kg |  | 
19 | COc1ccc(C2SCC(=O)N2n2c(CSc3nnc(-c4ccncc4)o3)nc3ccccc3c2=O)cc1 (stereo not drawn) | 33.8% | > 1000 mg/kg |  | 
20 | O=C1C(Cl)C(c2ccc(O)cc2)N1n1c(CSc2nnc(-c3ccncc3)o2)nc2ccccc2c1=O (stereo not drawn) | 25.7% | > 1000 mg/kg |  | 
21 | COc1ccc(C2C(Cl)C(=O)N2n2c(CSc3nnc(-c4ccncc4)o3)nc3ccccc3c2=O)cc1 (stereo not drawn) | 26.1% | > 1000 mg/kg |  | 
22 | O=c1c2cc(Br)ccc2nc(CSc2nnc(-c3ccncc3)o2)n1/N=C/c1ccc(Cl)cc1 | 26.4% | > 1000 mg/kg |  | 
23 | COc1ccc(/C=N/n2c(CSc3nnc(-c4ccncc4)o3)nc3ccccc3c2=O)cc1 | 20% | > 1000 mg/kg |  | 
24 | O=C1CSC(c2ccc(O)cc2)N1n1c(CSc2nnc(-c3ccncc3)o2)nc2ccccc2c1=O (stereo not drawn) | 31.7% | > 1000 mg/kg |  | 
25 | O=C1CSC(c2ccc(Cl)cc2)N1n1c(CSc2nnc(-c3ccncc3)o2)nc2ccc(Br)cc2c1=O (stereo not drawn) | 25.2% | > 1000 mg/kg | 25.2% | 66.9%
